What was measured:
Format in all cases: in vivo
[1] = tested on: Abutilon theophrasti (ABUTH); assay: Post-emergence herbicidal action; conditions: for Post-emergence action ABUTH: 320 g/ha, visual rating after about 3 weeks vs untreated controls, 100% = plants have died
Protocol: (§1) Seeds of monocotyledonous and dicotyledonous weeds and crop plants are placed in sandy loam in plastic or organic plant pots, covered with soil and cultivated in a greenhouse under controlled growth conditions. 2 to 3 weeks after sowing, the test plants are treated at the one-leaf stage. The compounds of the invention, formulated in the form of wettable powders (WP) or as emulsion concentrates (EC), are then sprayed onto the green parts of the plants as aqueous suspension or emulsion with addition of 0.5% additive at a water application rate of 600 l/ha (converted). After the test plants have been kept in the greenhouse under optimum growth conditions for about 3 weeks, the activity of the preparations is rated visually in comparison to untreated controls. For example, 100% activity=the plants have died, 0% activity=like control plants.
(§2) The abbreviations used here have the following meanings: • ABUTH Abutilon theophrasti • AMARE Amaranlhus retroflexus • CYPES Cyperus serotinus • ECHCGEchinocloa crus galli • LOLRI Lolium rigidum Gaudin • PHBPU Pharbitis purpurcum • SETVI Setaria viridis • VERPE Veronica persica • ALOMY Alopccurus myosuroides • AVEFA Avena fatua • DIGSA Digitaria sanguinalis • LOLMU Lolium multiflorum • MATIN Matricaria inodora • POLCO Polygonum convolvulus • STEME Stellaria media • VIOTR Viola tricolor
(§3) The compounds according to the invention were tested by the post-emergence and pre-emergence methods under the conditions described above for comparative purposes with the structurally closest compounds known from WO 2005/089551 A1 (D1).

[2] = tested on: Avena fatua (AVEFA); assay: Post-emergence herbicidal action; conditions: for Post-emergence action AVEFA: 320 g/ha, visual rating after about 3 weeks vs untreated controls, 100% = plants have died
Protocol: as §1, §2, §3

[3] = tested on: Echinochloa crus-galli (ECHCG); assay: Post-emergence herbicidal action; conditions: for Post-emergence action ECHCG: 320 g/ha, visual rating after about 3 weeks vs untreated controls, 100% = plants have died; for Herbicidal action against ECHCG: 80 g of a.i./ha, comparative test
Protocol: as §1, §2, §3

[4] = tested on: Lolium multiflorum (LOLMU); assay: Post-emergence herbicidal action
Protocol: as §1, §2, §3

[5] = tested on: Matricaria inodora (MATIN); assay: Post-emergence herbicidal action; conditions: for Post-emergence action MATIN: 320 g/ha, visual rating after about 3 weeks vs untreated controls, 100% = plants have died; for Herbicidal action against MATIN: 80 g of a.i./ha, comparative test
Protocol: as §1, §2, §3

[6] = tested on: Setaria viridis (SETVI); assay: Post-emergence herbicidal action; conditions: for Post-emergence action SETVI: 320 g/ha, visual rating after about 3 weeks vs untreated controls, 100% = plants have died; for Herbicidal action against SETVI: 80 g of a.i./ha, comparative test
Protocol: as §1, §2, §3

[7] = tested on: Stellaria media (STEME); assay: Post-emergence herbicidal action; conditions: for Post-emergence action STEME: 320 g/ha, visual rating after about 3 weeks vs untreated controls, 100% = plants have died
Protocol: as §1, §2, §3

[8] = tested on: Amaranthus retroflexus (AMARE); assay: Post-emergence herbicidal action; conditions: 320 g/ha, visual rating after about 3 weeks vs untreated controls, 100% = plants have died
Protocol: as §1, §2

[9] = tested on: Veronica persica (VERPE); assay: Post-emergence herbicidal action; conditions: 320 g/ha, visual rating after about 3 weeks vs untreated controls, 100% = plants have died
Protocol: as §1, §2

[10] = tested on: Viola tricolor (VIOTR); assay: Post-emergence herbicidal action; conditions: 320 g/ha, visual rating after about 3 weeks vs untreated controls, 100% = plants have died
Protocol: as §1, §2

[11] = tested on: Alopecurus myosuroides (ALOMY); assay: Pre-emergence herbicidal action; conditions: for Herbicidal action against ALOMY: 80 g of a.i./ha, comparative test; for Pre-emergence action ALOMY: 320 g/ha, visual scoring after about 3 weeks vs untreated controls, 100% = plants have died
From the text: as §2
(§4) Seeds of monocotyledonous and dicotyledonous weed plants and crop plants are placed in plastic or organic plant pots and covered with soil. The compounds of the invention, formulated in the form of wettable powders (WP) or as emulsion concentrates (EC), are then applied onto the surface of the covering soil as aqueous suspension or emulsion with addition of 0.5% additive at a water application rate of 600 l/ha (converted). After the treatment, the pots are placed in a greenhouse and kept under good growth conditions for the trial plants. After about 3 weeks, the effect of the preparations is scored visually in comparison with untreated controls as percentages. For example, 100% activity=the plants have died, 0% activity=like control plants.
as §3

[12] = tested on: Echinochloa crus-galli (ECHCG); assay: Pre-emergence herbicidal action; conditions: for Herbicidal action against ECHCG: 80 g of a.i./ha, comparative test; for Pre-emergence action ECHCG: 320 g/ha, visual scoring after about 3 weeks vs untreated controls, 100% = plants have died
From the text: as §2, §4, §3

[13] = tested on: Matricaria inodora (MATIN); assay: Pre-emergence herbicidal action; conditions: for Herbicidal action against MATIN: 80 g of a.i./ha, comparative test; for Pre-emergence action MATIN: 320 g/ha, visual scoring after about 3 weeks vs untreated controls, 100% = plants have died
From the text: as §2, §4, §3

[14] = tested on: Polygonum convolvulus (POLCO); assay: Pre-emergence herbicidal action; conditions: for Herbicidal action against POLCO: 80 g of a.i./ha, comparative test; for Pre-emergence action POLCO: 320 g/ha, visual scoring after about 3 weeks vs untreated controls, 100% = plants have died
From the text: as §2, §4, §3

[15] = tested on: Setaria viridis (SETVI); assay: Pre-emergence herbicidal action; conditions: for Herbicidal action against SETVI: 80 g of a.i./ha, comparative test; for Pre-emergence action SETVI: 320 g/ha, visual scoring after about 3 weeks vs untreated controls, 100% = plants have died
From the text: as §2, §4, §3

[16] = tested on: Stellaria media (STEME); assay: Pre-emergence herbicidal action; conditions: for Pre-emergence action STEME: 320 g/ha, visual scoring after about 3 weeks vs untreated controls, 100% = plants have died; for Herbicidal action against STEME: 80 g of a.i./ha, comparative test
From the text: as §2, §4, §3

[17] = tested on: Viola tricolor (VIOTR); assay: Pre-emergence herbicidal action; conditions: for Herbicidal action against VIOTR: 80 g of a.i./ha, comparative test; for Pre-emergence action VIOTR: 320 g/ha, visual scoring after about 3 weeks vs untreated controls, 100% = plants have died
From the text: as §2, §4, §3

[18] = tested on: Amaranthus retroflexus (AMARE); assay: Pre-emergence herbicidal action; conditions: 320 g/ha, visual scoring after about 3 weeks vs untreated controls, 100% = plants have died
From the text: as §2, §4

[19] = tested on: Pharbitis purpurea (PHBPU); assay: Pre-emergence herbicidal action; conditions: 320 g/ha, visual scoring after about 3 weeks vs untreated controls, 100% = plants have died
From the text: as §2, §4

[20] = tested on: Veronica persica (VERPE); assay: Pre-emergence herbicidal action; conditions: 320 g/ha, visual scoring after about 3 weeks vs untreated controls, 100% = plants have died
From the text: as §2, §4

[21] = tested on: harmful plants such as Abutilon theophrasti, Alopecurus myosuroides, Amaranthus retroflexus, Avena fatua, Echinochloa crus-galli, Matricaria inodora, Pharbitis …; assay: Post-emergence herbicidal action, summary in text; conditions: post-emergence treatment
Protocol: as §1
In this case, for example, in the post-emergence process, the compounds No. 1-001 and 111-001 have very good herbicidal activity (80% to 100% herbicidal action) against harmful plants such as Abutilon theophrasti, Alopecurus myosuroides, Amaranthus retroflexus, Avena fatua, Echinochloa crus-galli, Matricaria inodora, Pharbitis purpurea, Setaria viridis, Stellaria media, Veronica persica and Viola tricolor at an application rate of 0.32 kg of active substance or less per hectare. At the same time, some compounds according to the invention leave graminaceous crops such as barley, wheat, rye, millet/sorghum, maize, rice or sugarcane virtually undamaged when applied by the post-emergence method, even at high active compound dosages. Some substances are additionally also benign to dicotyledonous crops such as soya, cotton, oilseed rape or sugarbeet.

[22] = tested on: Alopecurus myosuroides (ALOMY); assay: Post-emergence herbicidal action
Protocol: as §1, §2, §3

[23] = tested on: Abutilon theophrasti (ABUTH); assay: Pre-emergence herbicidal action; conditions: 320 g/ha, visual scoring after about 3 weeks vs untreated controls, 100% = plants have died
From the text: as §2, §4

[24] = tested on: Digitaria sanguinalis (DIGSA); assay: Pre-emergence herbicidal action; conditions: 320 g/ha, visual scoring after about 3 weeks vs untreated controls, 100% = plants have died
From the text: as §2, §4

[25] = tested on: Lolium rigidum Gaudin (LOLRI); assay: Pre-emergence herbicidal action; conditions: 320 g/ha, visual scoring after about 3 weeks vs untreated controls, 100% = plants have died
From the text: as §2, §4

[26] = tested on: Polygonum convolvulus (POLCO); assay: Post-emergence herbicidal action; conditions: 320 g/ha, visual rating after about 3 weeks vs untreated controls, 100% = plants have died
Protocol: as §1, §2, §3

[27] = tested on: Pharbitis purpurea (PHBPU); assay: Post-emergence herbicidal action; conditions: 320 g/ha, visual rating after about 3 weeks vs untreated controls, 100% = plants have died
Protocol: as §1, §2

[28] = 320 g/ha, visual rating after about 3 weeks vs untreated controls, 100% = plants have died
[29] = 80 g of a.i./ha, comparative test

SMILES: FC(F)(F)c1cccc(Oc2nc(C3CC3)cc(-n3cc(C(F)(F)F)cn3)n2)c1 [II-001]
- Post-emergence action ABUTH [1]: 90%
- Post-emergence action AVEFA [2]: 50%
- Post-emergence action ECHCG [3]: 80%
- Post-emergence action LOLMU [4, 28]: 70%
- Post-emergence action MATIN [5]: 80%
- Post-emergence action SETVI [6]: 80%
- Post-emergence action STEME [7]: 90%
- Post-emergence action AMARE [8]: 90%
- Post-emergence action VERPE [9]: 100%
- Post-emergence action VIOTR [10]: 100%
- Herbicidal action against ALOMY [11]: 60%
- Pre-emergence action ALOMY [11]: 100%
- Herbicidal action against ECHCG [12]: 80%
- Pre-emergence action ECHCG [12]: 80%
- Herbicidal action against MATIN [13]: 80%
- Pre-emergence action MATIN [13]: 100%
- Herbicidal action against POLCO [14]: 20%
- Herbicidal action against SETVI [15]: 90%
- Pre-emergence action SETVI [15]: 100%
- Pre-emergence action STEME [16]: 90%
- Herbicidal action against VIOTR [17]: 90%
- Pre-emergence action VIOTR [17]: 90%
- Pre-emergence action AMARE [18]: 90%
- Pre-emergence action PHBPU [19]: 80%
- Pre-emergence action VERPE [20]: 90%
- herbicidal action against harmful plants (in words) [21]: good herbicidal action

SMILES: FC(F)(F)Oc1cccc(Oc2nc(C3CC3)cc(-n3cc(C(F)(F)F)cn3)n2)c1 [II-004]
- Herbicidal action against ALOMY [22, 29]: 50%
- Post-emergence action ALOMY [22, 28]: 80%
- Herbicidal action against ECHCG [3]: 40%
- Post-emergence action ECHCG [3]: 90%
- Herbicidal action against MATIN [5]: 40%
- Herbicidal action against SETVI [6]: 50%
- Post-emergence action SETVI [6]: 90%
- Post-emergence action STEME [7]: 80%
- Post-emergence action AMARE [8]: 90%
- Post-emergence action VERPE [9]: 90%
- Post-emergence action VIOTR [10]: 90%
- Herbicidal action against ALOMY [11]: 70%
- Pre-emergence action ALOMY [11]: 90%
- Herbicidal action against ECHCG [12]: 30%
- Herbicidal action against MATIN [13]: 80%
- Pre-emergence action MATIN [13]: 100%
- Herbicidal action against POLCO [14]: 50%
- Pre-emergence action POLCO [14]: 90%
- Herbicidal action against SETVI [15]: 100%
- Pre-emergence action SETVI [15]: 100%
- Herbicidal action against STEME [16]: 70%
- Pre-emergence action STEME [16]: 100%
- Herbicidal action against VIOTR [17]: 100%
- Pre-emergence action VIOTR [17]: 100%
- Pre-emergence action ABUTH [23]: 80%
- Pre-emergence action AMARE [18]: 100%
- Pre-emergence action DIGSA [24]: 100%
- Pre-emergence action LOLRI [25]: 90%
- Pre-emergence action PHBPU [19]: 80%
- Pre-emergence action VERPE [20]: 100%

SMILES: FC(F)(F)c1cnn(-c2cc(C3CC3)nc(Oc3csc(C(F)(F)F)c3)n2)c1 [IV-001]
- Herbicidal action against ABUTH [1, 29]: 80%
- Post-emergence action ABUTH [1]: 90%
- Herbicidal action against AVEFA [2, 29]: 60%
- Post-emergence action AVEFA [2]: 80%
- Herbicidal action against ECHCG [3]: 70%
- Post-emergence action ECHCG [3]: 80%
- Herbicidal action against LOLMU [4, 29]: 40%
- Herbicidal action against MATIN [5]: 80%
- Post-emergence action MATIN [5]: 90%
- Post-emergence action POLCO [26]: 90%
- Herbicidal action against SETVI [6]: 70%
- Post-emergence action SETVI [6]: 80%
- Herbicidal action against STEME [7, 29]: 100%
- Post-emergence action STEME [7]: 100%
- Post-emergence action AMARE [8]: 100%
- Post-emergence action PHBPU [27]: 80%
- Post-emergence action VERPE [9]: 100%
- Post-emergence action VIOTR [10]: 90%
- Herbicidal action against ALOMY [11]: 70%
- Pre-emergence action ALOMY [11]: 100%
- Herbicidal action against ECHCG [12]: 70%
- Pre-emergence action ECHCG [12]: 100%
- Herbicidal action against MATIN [13]: 90%
- Pre-emergence action MATIN [13]: 100%
- Herbicidal action against POLCO [14]: 20%
- Pre-emergence action POLCO [14]: 80%
- Herbicidal action against SETVI [15]: 90%
- Pre-emergence action SETVI [15]: 90%
- Herbicidal action against STEME [16]: 90%
- Pre-emergence action STEME [16]: 100%
- Herbicidal action against VIOTR [17]: 90%
- Pre-emergence action VIOTR [17]: 90%
- Pre-emergence action AMARE [18]: 100%
- Pre-emergence action VERPE [20]: 90%
- herbicidal action against harmful plants (in words) [21]: good herbicidal action

— US12509445B2, “Herbicidally active 4-cyclopropyl-6-[4-(trifluormethyl)pyrazol-1-yl)]pyrimidines” (Bayer Aktiengesellschaft, priority 2019, dated 2025)
